Results on 24 compounds are retold here after paper PMC2892117 (Bioorganic & medicinal chemistry, 2010).

Test [1] relates to Trypanosoma brucei rhodesiense STIB900. Briefly: microbe, parasite or virus in culture. As to conditions: RHODESIENSE|STIB900, read-out: T. b. r. IC50.
The subject of another test is Plasmodium falciparum K1. Briefly: In vitro assay with P. f. K1 strain. Type of test: cell-based. As to conditions: K1, read-out: P. f. IC50.
In a further test the test system is T. b. r. STIB 900. Briefly: STIB900 mouse model for acute African trypanosomiasis. The class given is in vivo. The conditions noted are these: for responders at 5 mg/kg / responders at 25 mg/kg: Mus musculus, 1440 h, read-out: Cures; for Survival / Survival (days): average days of mice survival; for Cures: number of mice that survive and are parasite free for 60 days.

Structures are written as SMILES. Counter-ions that a name gives are not always drawn.

With `N=C(N)c1ccc(-c2ccc(-c3ccc(C(=N)N)cn3)o2)cc1` [IIc, azafuramidine, reference compound], the IC50 came to 7 nM in test [1] and 6.5 nM in the test with Plasmodium falciparum K1. Further, the responders at 5 mg/kg in the test on T. b. r. STIB 900 (ip) is 75%. Besides, in the test with T. b. r. STIB 900 (ip, 4 × 5 mg/kg), the “Survival” value is listed as more than 54.5 days.

`CONC(=N)c1ccc(-c2ccc(-c3ccc(C(=N)NOC)cc3)o2)cc1` [IIb, Pafuramidine, reference compound]: the Cures in the test with T. b. r. STIB 900 (po, 4 × 5 mg/kg) is 0/4. In the test on T. b. r. STIB 900 (po, 4 × 25 mg/kg), the “Survival” value is more than 60 days and the Cures is given as 4/4.

As for `Cl.Cl.N/C(=N\O)c1ccc(-c2cnc(-c3ccc(/C(N)=N\O)cn3)s2)nc1` [6g, 2,5-Bis(3-N-hydroxyamidinopyridin-6-yl)thiazole dihydrochloride], in the test with T. b. r. STIB 900 (po), the responders at 25 mg/kg is 0%. In addition, the “Survival” value with T. b. r. STIB 900 (po, 4 × 25 mg/kg) was found to be 9 days.

For `Cl.Cl.N/C(=N\O)c1ccc(-c2cnc(-c3ccc(/C(N)=N\O)nc3)s2)cn1` [6e, 2,5-Bis-(2-N-hydroxyamidinopyridin-5-yl)thiazole dihydrochloride], the responders at 25 mg/kg in the test with T. b. r. STIB 900 (po) was 25%. Moreover, in the test on T. b. r. STIB 900 (po, 4 × 25 mg/kg), the “Survival” value is reported as more than 37.5 days.

Take `N/C(=N/O)c1ccc(-c2cnc(-c3ccc(/C(N)=N\O)cc3)s2)cc1` [6a, 2,5-Bis-(4-N-hydroxyamidinophenyl)thiazole dihydrochloride]: in the test with T. b. r. STIB 900 (po), the responders at 25 mg/kg worked out at 0%.

As for `Cl.Cl.N/C(=N\O)c1ccc(-c2cnc(-c3ccc(/C(N)=N/O)nc3)s2)cc1` [6b, 5-(4-N-hydroxyamidinophenyl)-2(2-N-hydroxyamidinopyridin-5-yl)thiazole dihydrochloride], in the test on T. b. r. STIB 900 (po), the responders at 25 mg/kg is 0%. The “Survival” value in the test on T. b. r. STIB 900 (po, 4 × 25 mg/kg) is on record as 37.5 days.

For `CO/N=C(\N)c1ccc(-c2cnc(-c3ccc(/C(N)=N\OC)nc3)s2)cn1.Cl.Cl` [7e, 2,5-Bis(2-N-methoxyamidinopyridin-5-yl)thiazole dihydrochloride], the responders at 25 mg/kg in the test with T. b. r. STIB 900 (po) was 25%. In addition, the “Survival” value in the test with T. b. r. STIB 900 (po, 4 × 25 mg/kg) is reported as more than 47.25 days.

Take `Cl.Cl.N=C(N)c1ccc(-c2cnc(-c3ccc(C(=N)N)cn3)s2)nc1` [5g, 2,5-Bis-(3-amidinopyridin-6-yl)thiazole dihydrochloride]: the responders at 5 mg/kg in the test with T. b. r. STIB 900 (ip) came to 0%. Moreover, the “Survival” value in the test with T. b. r. STIB 900 (ip, 4 × 5 mg/kg) was determined as 21.5 days.

In the case of `Cl.Cl.N=C(N)c1ccc(-c2cnc(-c3ccc(C(=N)N)nc3)s2)cn1` [5e, 2,5-Bis(2-amidinopyridin-5-yl)thiazole dihydrochloride], the responders at 5 mg/kg in the test with T. b. r. STIB 900 (ip) was determined as 0%. In addition, the “Survival” value in the test on T. b. r. STIB 900 (ip, 4 × 5 mg/kg) stood at 50.5 days.

As for `Cl.Cl.N/C(=N\O)c1ccc(-c2cnc(-c3ccc(/C(N)=N\O)cn3)s2)cc1` [6c, 5-(4-N-hydroxyamidinophenyl)-2-(3-N-hydroxyamidinopyridin-6-yl)thiazole dihydrochloride], in the test with T. b. r. STIB 900 (po), the responders at 25 mg/kg was found to be 0%. Also, the “Survival” value in the test with T. b. r. STIB 900 (po, 4 × 25 mg/kg) is 24 days.

Take `Cl.Cl.N=C(N)c1ccc(-c2ncc(-c3ccc(C(=N)N)nc3)s2)cc1` [5d, 2-(4-Amidinophenyl)-5-(2-amidinopyridin-5-yl)thiazole dihydrochloride]: the responders at 5 mg/kg in the test with T. b. r. STIB 900 (ip) worked out at 0%. Also, the “Survival” value in the test on T. b. r. STIB 900 (ip, 4 × 5 mg/kg) is more than 36 days.

Regarding `Cl.Cl.N/C(=N\O)c1ccc(-c2ncc(-c3ccc(/C(N)=N\O)nc3)s2)cc1` [6d, 2-(4-N-hydroxyamidinophenyl)-5-(2-N-hydroxyamidinopyridin-5yl)thiazole dihydrochloride], the responders at 25 mg/kg in the test with T. b. r. STIB 900 (po) was found to be 0%. Moreover, in the test with T. b. r. STIB 900 (po, 4 × 25 mg/kg), the “Survival” value is 36.75 days.

Take `CO/N=C(\N)c1ccc(-c2cnc(-c3ccc(/C(N)=N/OC)nc3)s2)cc1.Cl` [7b, 5-(4-N-methoxyamidinophenyl)-2-(2-N-methoxyamidinopyridin-5-yl)thiazole dihydrochlodide]: in the test with T. b. r. STIB 900 (po), the responders at 25 mg/kg was found to be 0%. For the same compound, the “Survival” value with T. b. r. STIB 900 (po, 4 × 25 mg/kg) came to 42.75 days.

In the case of `Cl.Cl.N=C(N)c1ccc(-c2cnc(-c3ccc(C(=N)N)cc3)s2)cc1` [5a, 2,5-Bis(4-amidinophenyl)thiazole dihydrochloride], the responders at 5 mg/kg with T. b. r. STIB 900 (ip) is 25%. For the same compound, the “Survival” value in the test with T. b. r. STIB 900 (ip, 4 × 5 mg/kg) was more than 44.5 days. Further, in the test with T. b. r. STIB 900 (ip, 4 × 5 mg/kg, 5 mg/kg), the Cures was 1 of four and one of four.

As for `N=C(N)c1ccc(-c2ncc(-c3ccc(C(=N)N)nc3)s2)nc1` [5f, 2-(3-Amidinopyridin-6-yl)-5-(2-amidinopyridin-5-yl)thiazole dihydrochloride], in the test with T. b. r. STIB 900 (ip), the responders at 5 mg/kg was 0%.

Take `CO/N=C(/N)c1ccc(-c2cnc(-c3ccc(/C(N)=N\OC)cc3)s2)cc1.Cl.Cl` [7a, 2,5-Bis-(4-N-methoxyamidinophenyl)thiazole dihydrochloride]: in the test on T. b. r. STIB 900 (po), the responders at 25 mg/kg is 0%. Moreover, the “Survival” value in the test on T. b. r. STIB 900 (po, 4 × 25 mg/kg) is 41 days.

`N=C(N)c1ccc(OCCCCCOc2ccc(C(=N)N)cc2)cc1` [I, pentamidine, reference compound]: in the test with T. b. r. STIB 900 (ip), the responders at 5 mg/kg was 50%.

Take `CO/N=C(\N)c1ccc(-c2cnc(-c3ccc(/C(N)=N\OC)cn3)s2)cc1.Cl.Cl` [7c, 5-(4-N-methoxyamidinophenyl)-2-(3-N-methoxyamidinopyridin-6-yl)thiazole dihydrochloride]: the responders at 25 mg/kg with T. b. r. STIB 900 (po) turned out to be 0%. Moreover, the “Survival” value in the test with T. b. r. STIB 900 (po, 4 × 25 mg/kg) was 35 days.

Consider `N=C(N)c1ccc(-c2ccc(-c3ccc(C(=N)N)cc3)s2)cc1` [IIe, reference compound], for which the responders at 5 mg/kg with T. b. r. STIB 900 (ip) was 50%. Moreover, in the test with T. b. r. STIB 900 (ip, 4 × 5 mg/kg), the “Survival” value is recorded as more than 48.75 days.

Turning to `N=C(N)c1ccc(-c2cnc(-c3ccc(C(=N)N)nc3)s2)cc1` [5b, 5-(4-Amidinophenyl)-2-(2-amidinopyridin-5-yl)thiazole dihydrochloride], the responders at 5 mg/kg in the test on T. b. r. STIB 900 (ip) is 0%.

In the case of `CO/N=C(\N)c1ccc(-c2cnc(-c3ccc(/C(N)=N\OC)cn3)s2)nc1` [7g, 2,5-Bis(3-N-methoxyamidinopyridin-6-yl)thiazole dihydrochloride], the responders at 25 mg/kg in the test on T. b. r. STIB 900 (po) amounted to 0%.

`N=C(N)c1ccc(-c2ccc(-c3ccc(C(=N)N)cc3)o2)cc1` [IIa, furamidine]: the IC50 in test [1] turned out to be 3.2 nM. Besides, in the test with T. b. r. STIB 900 (ip, 4 × 5 mg/kg), the “Survival” value is on record as more than 46 days.

With `N=C(N)c1ccc(-c2cnc(-c3ccc(C(=N)N)cn3)s2)cc1` [5c, 5-(4-Amidinophenyl)-2-(3-amidinopyridin-6-yl)thiazole dihydrochloride], the responders at 5 mg/kg in the test with T. b. r. STIB 900 (ip) came to 0%.

For the compound `CO/N=C(\N)c1ccc(-c2ccc(-c3ccc(/C(N)=N/OC)cn3)o2)cc1` [IId, reference compound], the “Survival (days)” value in the test on T. b. r. STIB 900 (po, 4 × 5 mg/kg) was >60 >60 days; in the test on T. b. r. STIB 900 (po, 4 × 25 mg/kg), >60 >60 days. Moreover, the Cures with T. b. r. STIB 900 (po, 4 × 5 mg/kg) is listed as 4/4 4/4; in the test with T. b. r. STIB 900 (po, 4 × 25 mg/kg), 4/4 4/4.

By IC50 is commonly meant the point on the concentration scale where inhibition reaches its midpoint.
